{
  "source": "patent US7951920B2",
  "about": "“Conjugate of an antibody against CCR5 and an antifusogenic peptide” (Roche Palo Alto LLC, priority 2006, dated 2011)",
  "molecules": {"B1": {"name": "Antibody C: anti-CCR5 antibody, variable domains SEQ ID NO:5, 6 (antibody, V domains shown)", "VH": "QVQLKQSGPGLVRPSQSLSITCTVSGFPLGIFGVHWVRQSPGKGLEWLGVIWKGGNTDYNAAFMSRLRITKDNSKSQVFFRMNSLQTDDTAIYYCAKVNLADAMDYWGQGTSVIVSS", "VL": "DIQMTQSPASLSASVGETVTITCRASGNIHGYLAWFQQKQGKSPQLLVYNTKTLAEGVPSRFSGSGSGTQFSLKINSLQPEDFGNYYCQHHYDLPRTFGGGTKLEIKR", "modifications": "mouse"}},
  "key": {"[1]": {"tested_on": "pseudotyped NL-Bal viruses", "assay_type": "cell-based, HIV", "conditions": "pseudotyped NL-Bal virus, JC53-BL cells, 3 day incubation, inhibition of luciferase activity", "experimental": "For the production of pseudotyped NL-Bal viruses, plasmid pNL4-3Δenv (HIV pNL4-3 genomic construct with a deletion within the env gene) and pcDNA3.1/NL-BAL env [pcDNA3.1 plasmid containing NL-Bal env gene (obtained from NIBSC Centralized Facility for AIDS Reagents)] were co-transfected into the HEK 293FT cell line (Invitrogen), cultured in Dulbecco's modified […] (DMEM) containing 10% fetal calf serum (FCS), 100 U/mL Penicillin, 100 μg/mL Streptomycin, 2 mM L-glutamine and 0.5 mg/mL geniticin (all media from Invitrogen/Gibco). The supernatants containing pseudotyped viruses were harvested two days following transfection, and cellular debris was removed by filtration through a 0.45 μm pore size PES (polyethersulfone) filter (Nalgene) and stored at −80° C. in aliquots. For normalization in assay performance, virus stock aliquots were used to infect JC53-BL (US NIH Aids Reagent Program) cells yielding approximately 1.5×10^5 RLU (relative light units) per well. Test antifusogenic peptide-anti-CCR5 antibody conjugates, reference antibodies and reference antifusogenic peptides (T-20, T-1249, T-651 and T-2635) were serially diluted in 96-well plates. The assay was carried out in quadruplicates. Each plate contained cell control and virus control wells. The equivalent of 1.5×10^5 RLU of virus stocks were added to each well, then 2.5×10^4 JC53-BL cells were added to each well, with a final assay volume of 200 μl per well. After 3 day incubation at 37° C., 90% Relative Humidity, and 5% CO2, media were aspirated and 50 μl of Steady-Glo® Luciferase Assay System (Promega) was added to each well. The assay plates were read on a Luminometer (Luminoskan, Thermo Electron Corporation) after 10 minutes of incubation at room temperature. Percent inhibition of luciferase activity was calculated for each dose point after subtracting the background, and IC50 and IC90-values were determined by using XLfit curve fitting software for Excel (version 3.0.5 Build12; […])."}, "[2]": {"tested_on": "HIV", "experiment": "HIV assays", "assay_type": "cell-based", "conditions": "comparison with antibody 2D7"}, "[3]": {"tested_on": "CCR5 mutant K171A or E172A", "experiment": "Epitope binding by alanine scanning (epitope mapping)", "design": "species or system human", "conditions": "100% epitope binding is defined for wild-type CCR5", "description": "Epitope binding is investigated by using alanine scanning according to the method described by W. C. Olson et al. (J. Virol. (1999) 73:4145-55) for epitope mapping. […] Epitope binding for antibody C is found to be 20% for CCR5 mutant K171A or E172A (glu 172 is mutated to ala). 100% epitope binding is defined for wild-type CCR5. A further preferred anti-CCR5 antibody binds to the same epitope as antibody C binds."}},
  "data": [
    {"molecule": "CC[C@H](C)[C@H](NC(=O)[C@H](CCC(N)=O)NC(=O)[C@H](C)NC(=O)[C@H](CCC(N)=O)NC(=O)[C@H](CCC(=O)O)NC(=O)[C@H](CC(C)C)NC(=O)[C@H](CC(C)C)NC(=O)[C@H](C)NC(=O)[C@@H](NC(=O)[C@@H](NC(=O)[C@H](CCCCN)NC(=O)[C@H](CCC(N)=O)NC(=O)[C@H](CCC(=O)O)NC(=O)[C@H](Cc1c[nH]c2ccccc12)NC(=O)[C@H](CCC(=O)O)NC(=O)[C@H](CCC(N)=O)NC(=O)[C@H](Cc1c[nH]c2ccccc12)NC(C)=O)[C@@H](C)CC)[C@@H](C)O)C(=O)N[C@@H](CCC(N)=O)C(=O)N[C@@H](CCC(N)=O)C(=O)N[C@@H](CCC(=O)O)C(=O)N[C@@H](CCCCN)C(=O)N[C@@H](CC(N)=O)C(=O)N[C@@H](CCC(=O)O)C(=O)N[C@@H](Cc1ccc(O)cc1)C(=O)N[C@@H](CCC(=O)O)C(=O)N[C@@H](CC(C)C)C(=O)N[C@@H](CCC(N)=O)C(=O)N[C@@H](CCCCN)C(=O)N[C@@H](CC(C)C)C(=O)N[C@@H](CC(=O)O)C(=O)N[C@@H](CCCCN)C(=O)N[C@@H](Cc1c[nH]c2ccccc12)C(=O)N[C@@H](C)C(=O)N[C@@H](CO)C(=O)N[C@@H](CC(C)C)C(=O)N[C@@H](Cc1c[nH]c2ccccc12)C(=O)N[C@@H](CCC(=O)O)C(=O)N[C@@H](Cc1c[nH]c2ccccc12)C(=O)N[C@@H](Cc1ccccc1)C(N)=O", "note": "[T-1249]", "values": [
      {"measurement": "Antiviral activity IC50", "setting": "[1]", "result": 0.011, "unit": "µg/mL"},
      {"measurement": "Antiviral activity IC90", "setting": "[1]", "result": 0.09, "unit": "µg/mL"}
    ]},
    {"molecule": "CC[C@H](C)[C@H](NC(=O)[C@H](C)NC(=O)[C@H](CCCNC(=N)N)NC(=O)[C@H](CC(=O)O)NC(=O)[C@H](Cc1c[nH]c2ccccc12)NC(=O)[C@H](C)NC(=O)[C@H](CCC(=O)O)NC(=O)[C@H](Cc1c[nH]c2ccccc12)NC(=O)[C@@H](NC(=O)[C@@H](NC(C)=O)[C@@H](C)O)[C@@H](C)O)C(=O)N[C@@H](C)C(=O)N[C@@H](CCC(=O)O)C(=O)N[C@@H](Cc1ccc(O)cc1)C(=O)N[C@@H](C)C(=O)N[C@@H](C)C(=O)N[C@@H](CCCNC(=N)N)C(=O)N[C@H](C(=O)N[C@@H](CCC(=O)O)C(=O)N[C@@H](C)C(=O)N[C@@H](CC(C)C)C(=O)N[C@H](C(=O)N[C@@H](CCCNC(=N)N)C(=O)N[C@@H](C)C(=O)N[C@@H](C)C(=O)N[C@@H](CCC(N)=O)C(=O)N[C@@H](CCC(=O)O)C(=O)N[C@@H](CCC(N)=O)C(=O)N[C@@H](CCC(N)=O)C(=O)N[C@@H](CCC(=O)O)C(=O)N[C@@H](CCCCN)C(=O)N[C@@H](CC(N)=O)C(=O)N[C@@H](CCC(=O)O)C(=O)N[C@@H](C)C(=O)N[C@@H](C)C(=O)N[C@@H](CC(C)C)C(=O)N[C@@H](CCCNC(=N)N)C(=O)N[C@@H](CCC(=O)O)C(=O)N[C@@H](CC(C)C)C(N)=O)[C@@H](C)CC)[C@@H](C)CC", "note": "[T-2635]", "values": [
      {"measurement": "Antiviral activity IC50", "setting": "[1]", "result": 0.014, "unit": "µg/mL"},
      {"measurement": "Antiviral activity IC90", "setting": "[1]", "result": 0.161, "unit": "µg/mL"}
    ]},
    {"molecule": "enfuvirtide", "values": [
      {"measurement": "Antiviral activity IC50", "setting": "[1]", "result": 0.206, "unit": "µg/mL"},
      {"measurement": "Antiviral activity IC90", "setting": "[1]", "result": 3.955, "unit": "µg/mL"}
    ]},
    {"molecule": "B1", "values": [
      {"measurement": "IC50 values compared with antibody 2D7", "setting": "[2]", "result": "lower IC50 values than antibody 2D7"},
      {"measurement": "Epitope binding", "setting": "[3]", "result": 20, "unit": "%"}
    ]}
  ]
}
